Measurements: patent publication US10981932B2, “Macrocyclic indole derivatives” (Bayer Aktiengesellschaft, priority 2016, dated 2021)
Values joined by “and” are separate entries in the source; they are usually repeats but may differ in a detail not shown here. Identical values can stand only once. Counter-ions that a name gives are not always drawn. Like-named read-outs stand apart in the source and are kept apart here.

Tests used:
MCL-1 = MCL-1 (Homo sapiens, UniProt Q07820); test: Protein-protein interaction assay MCL-1/Noxa BH3 peptide (MCL-1 assay), TR-FRET; type: binding; conditions: MBP-MCL-1 / Noxa BH3-derived peptide, median
Procedure, shortened: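 IC50 came from a 4-parameter fit of the normalized 665/620 nm TR-FRET ratio (anti-MBP Eu-cryptate/streptavidin-XL665). Compounds (0.1 nM–20 μM, duplicates) were preincubated 10 min at 22 °C with 1 nM MBP-MCL-1 in pH 7 Tris/NaCl/KF buffer, then read after 1 h at 22 °C plus overnight at 4 °C.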

SUDHL5 [1] = test: Induction of caspase-3/7 activity (Caspase-Glo 3/7), SUDHL5; type: cell-based; conditions: caspase-3/7 induction, SUDHL5 cells, 3 h treatment, median
Procedure, shortened: (§1)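 DLBCL lines SUDHL5 and SUDHL10 treated with compounds for 3 h at 37 °C; caspase-3/7 activity read by Caspase-Glo 3/7 luminescence. Medium-only background subtracted; EC50 fitted with bottom fixed at 1 and top fixed at the reference compound's maximal induction.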

SUDHL10 [2] = test: Induction of caspase-3/7 activity (Caspase-Glo 3/7), SUDHL10; type: cell-based; conditions: caspase-3/7 induction, SUDHL10 cells, 3 h treatment, median
Procedure, shortened: as §1

SUDHL5 [3] = test: Anti-proliferative effect (CellTiter-Glo, 72 h), SUDHL5; type: cell-based; conditions: SUDHL5 cells, antiproliferation, median, read-out: Antiproli SUDHL5 [M] (median)
Procedure, shortened: (§2)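 Cells plated and incubated with compounds for 72 h at 37 °C, with a parallel day 0 reference plate for time-zero signal. Viability read by CellTiter-Glo luminescence after 10 min, measured identically on the day 0 and 72 h plates.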

SUDHL10 [4] = test: Anti-proliferative effect (CellTiter-Glo, 72 h), SUDHL10; type: cell-based; conditions: SUDHL10 cells, antiproliferation, median, read-out: Antiproli SUDHL10 [M] (median)
Procedure, shortened: as §2

A2780 = test: Anti-proliferative effect (CellTiter-Glo, 72 h), A2780; type: cell-based; conditions: A2780 cells, median, read-out: IC50 antiproliferation assay A2780 [M] (median)
Procedure, shortened: as §2

SUDHL5 [5] = test: Induction of cytotoxicity (CellTiter-Glo, 5 h), SUDHL5
SUDHL10 [6] = test: Induction of cytotoxicity (CellTiter-Glo, 5 h), SUDHL10
[7] = read-out: Cytotox SUDHL5 [M] (median), SUDHL5 cells, cytotoxicity induction, CellTiter-Glo, 5 h incubation, median
[8] = read-out: Cytotox SUDHL10 [M] (median), SUDHL10 cells, cytotoxicity induction, CellTiter-Glo, 5 h incubation, median
[9] = Homo sapiens, SU-DHL10, 72 h, 72 h incubation
[10] = Homo sapiens, SU-DHL-5, 72 h, 72 h incubation
[11] = Homo sapiens, SU-DHL-5, 5 h, read-out: Cytotox SUDHL5 [M] (median), SUDHL5 cells, cytotoxicity induction, CellTiter-Glo, 5 h incubation, median
[12] = Homo sapiens, SU-DHL10, 5 h, read-out: Cytotox SUDHL10 [M] (median), SUDHL10 cells, cytotoxicity induction, CellTiter-Glo, 5 h incubation, median
[13] = Homo sapiens, SU-DHL-5, 72 h, 72 h
[14] = Homo sapiens, SU-DHL10, 72 h, 72 h
[15] = Homo sapiens, SU-DHL-5, 5 h, read-out: Cytotox SUDHL5 [M] (median), SUDHL5 cells, cytotoxicity induction, CellTiter-Glo, 5 h, median
[16] = Homo sapiens, SU-DHL10, 5 h, read-out: Cytotox SUDHL10 [M] (median), SUDHL10 cells, cytotoxicity induction, CellTiter-Glo, 5 h, median

MCL-1, sequence (Q07820 whole entry): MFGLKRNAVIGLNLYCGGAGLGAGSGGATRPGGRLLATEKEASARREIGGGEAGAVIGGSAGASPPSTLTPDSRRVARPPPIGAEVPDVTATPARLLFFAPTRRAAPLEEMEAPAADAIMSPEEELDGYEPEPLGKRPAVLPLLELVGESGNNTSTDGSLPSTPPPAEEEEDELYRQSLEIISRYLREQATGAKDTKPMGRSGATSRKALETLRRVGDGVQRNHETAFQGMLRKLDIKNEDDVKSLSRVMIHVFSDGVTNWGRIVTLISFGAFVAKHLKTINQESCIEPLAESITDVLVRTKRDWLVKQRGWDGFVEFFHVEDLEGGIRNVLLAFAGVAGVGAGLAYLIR

SMILES | IC50 (MCL-1) [µM] | EC50 (SUDHL5 [1]) [µM] | EC50 (SUDHL10 [2]) [µM] | IC50 (SUDHL5 [3]; 72 h incubation) [M] | IC50 (SUDHL10 [4]; 72 h incubation) | IC50 (A2780; Homo sapiens, A2780, 72 h) [M] | IC50 (SUDHL5 [5]; [7]) [M] | IC50 (SUDHL10 [6]; [8]) [M] | IC50 (SUDHL10 [4]; [9]) [M] | IC50 (A2780) [M] | IC50 (SUDHL5 [3]; [10]) [M] | EC50 (SUDHL5 [1]; Homo sapiens, SU-DHL-5, 3 h) [µM] | EC50 (SUDHL10 [2]; Homo sapiens, SU-DHL10, 3 h) [µM] | IC50 (SUDHL5 [5]; [11]) [M] | IC50 (SUDHL10 [6]; [12]) [M] | IC50 (SUDHL5 [3]; [13]) [M] | IC50 (SUDHL10 [4]; [14]) [M] | IC50 (SUDHL5 [5]; [15]) [M] | IC50 (SUDHL10 [6]; [16]) [M]
COCc1c2c(nn1C)COCCCCn1c(C(=O)O)c(CCCOc3cccc4ccccc34)c3cccc-2c31 (single isomer, unassigned; enantiomer 1) [Example 100, 3-(methoxymethyl)-2-methyl-7-[3-(naphthalen-1-yloxy)propyl]-2,10,11,12,13,15-hexahydropyrazolo[4′,3′:9,10][1,6]oxazacycloundecino[8,7,6-hi]indole-8-carboxylic acid-N-ethylethanamine Salt (Enantiomer 1)] | 0.0424 | > 33 | > 33 | 1.61e-05 | 1.71e-05 M | > 3.3e-05 | > 3.3e-05 | > 3.3e-05 | – | – | – | – | – | – | – | – | – | – | –
COCCn1nc(C2CC2)c2c1COCCCCn1c(C(=O)O)c(CCCOc3cccc4ccccc34)c3cccc-2c31 (single isomer, unassigned; enantiomer 1) [Example 103, 3-cyclopropyl-1-(2-methoxyethyl)-7-[3-(naphthalen-1-yloxy)propyl]-1,10,11,12,13,15-hexahydropyrazolo[4′,3′:9,10][1,6]oxazacycloundecino[8,7,6-hi]indole-8-carboxylic acid-N-ethylethanamine Salt (Enantiomer 1)] | 0.00298 | 2.66 | 8.71 | 4.28e-06 | – | > 3.3e-05 | 3.55e-06 | 8.83e-06 | 7.52e-06 | 2.72e-05 | – | – | – | – | – | – | – | – | –
CCc1c2c(nn1C)CN(C)CCCn1c(C(=O)O)c(CCCOc3cccc4ccccc34)c3cccc-2c31 (single isomer, unassigned; enantiomer 1) [Example 142, 11-Ethyl-7,10-dimethyl-1-[3-(1-naphthyloxy)propyl]-4,5,6,7,8,10-hexahydropyrazolo[3′,4′:7,8][1,5]diazecino[9,10,1-hi]indole-2-carboxylic acid-N-ethylethanamine Salt (Enantiomer 1)] | 0.00523 | 4.73 | 12.5 | – | – | 2.25e-05 | 6.07e-06 | 1.34e-05 | 1.89e-05 | – | 8.25e-06 | – | – | – | – | – | – | – | –
Cn1nc(CCN2CCOCC2)c2c1COCCCCn1c(C(=O)O)c(CCCOc3cccc4ccccc34)c3cccc-2c31 (single isomer, unassigned; enantiomer 1) [Example 151, 1-methyl-3-[2-(morpholin-4-yl)ethyl]-7-[3-(naphthalen-1-yloxy)propyl]-1,10,11,12,13,15-hexahydropyrazolo[4′,3′:9,10][1,6]oxazacycloundecino[8,7,6-hi]indole-8-carboxylic acid-N-ethylethanamine Salt (Enantiomer 1)] | 0.0133 | – | – | > 3.3e-06 | – | > 3.3e-05 | – | – | 2.01e-05 | – | – | 27.5 | > 33 | 1.91e-05 | > 3.3e-05 | – | – | – | –
COCc1nn(C)c2c1-c1cccc3c(CCCOc4cccc5ccccc45)c(C(=O)O)n(c13)CCCCCOC2 (single isomer, unassigned; enantiomer 1) [Example 178, 3-(methoxymethyl)-1-methyl-7-[3-(naphthalen-1-yloxy)propyl]-1,11,12,13,14,16-hexahydro-1 OH-pyrazolo[3′,4′:3,4][1,7]oxazacyclododecino[5,6,7-h]indole-8-carboxylic acid-N-ethylethanamine Salt (Enantiomer 1)] | 0.0181 | – | 30 | – | > 3.3e-05 M and 2.21e-05 M | > 3.3e-05 | – | – | – | – | 9.37e-06 | 12.8 | > 33 | 1.3e-05 | > 3.3e-05 | – | – | – | –
CCCc1nn(C)c2c1-c1c(C)ccc3c(CCCOc4cccc5ccccc45)c(C(=O)O)n(c13)CCCCOC2 (single isomer, unassigned; enantiomer 1) [Example 188, 1,4-dimethyl-7-[3-(naphthalen-1-yloxy)propyl]-3-propyl-1,10,11,12,13,15-hexahydropyrazolo[4′,3′:9,10][1,6]oxazacycloundecino[8,7,6-hi]indole-8-carboxylic acid-N-ethylethanamine Salt (Enantiomer 1)] | 0.00146 | 2.82 | 7.76 | 3.39e-06 | 9.83e-06 M | 2.42e-05 | 2.95e-06 | 6.61e-06 | – | – | – | – | – | – | – | – | – | – | –
Cn1nc2c(c1C(F)(F)F)-c1cccc3c(CCCOc4cccc5ccccc45)c(C(=O)O)n(c13)CCCCOC2 (single isomer, unassigned; enantiomer 1) [Example 194, 2-methyl-7-[3-(naphthalen-1-yloxy)propyl]-3-(trifluoromethyl)-2,10,11,12,13,15-hexahydropyrazolo[4′,3′:9,10][1,6]oxazacycloundecino[8,7,6-hi]indole-8-carboxylic Acid (Enantiomer 1)] | 0.00735 | 5.09 | 15.1 | – | 6.28e-06 M | 1.82e-05 | 5.46e-06 | 1.63e-05 | – | – | 7.95e-06 | – | – | – | – | – | – | – | –
CCc1c2c(nn1CCN1CCOCC1)COCCCCn1c(C(=O)O)c(CCCOc3cccc4ccccc34)c3cccc-2c31 (single isomer, unassigned; enantiomer 1) [Example 202, 3-ethyl-2-[2-(morpholin-4-yl)ethyl]-7-[3-(naphthalen-1-yloxy)propyl]-2,10,11,12,13,15-hexahydropyrazolo[4′,3′:9,10][1,6]oxazacycloundecino[8,7,6,6-hi]indole-8-carboxylic Acid (Enantiomer 1)] | 0.0462 | 30.2 | > 33 | 2.52e-05 | 1.74e-05 M | 3.17e-05 | > 3.3e-05 | 2.87e-05 | – | – | – | – | – | – | – | – | – | – | –
Cn1nc(COc2ccc(NS(C)(=O)=O)cc2)c2c1COCCCCn1c(C(=O)O)c(CCCOc3cccc4ccccc34)c3cccc-2c31 (single isomer, unassigned; enantiomer 1) [Example 322, 1-methyl-3-({4-[((methylsulfonyl)amino]phenoxy}methyl)-7-[3-(naphthalen-1-yloxy)propyl]-1,10,11,12,13,15-hexahydropyrazolo[4′,3′:9,10][1,6]oxazacycloundecino[8,7,6-hi]indole-8-carboxylic Acid-N-ethylethanamine Salt (Enantiomer 1)] | 1.08 | – | – | – | – | > 3.3e-05 | – | – | – | – | – | > 33 | > 33 | – | – | 2.46e-05 | 1.9e-05 | > 3.3e-05 | > 3.3e-05
Cn1nc(CN2CCCCC2=O)c2c1COCCCCn1c(C(=O)O)c(CCCOc3cccc4ccccc34)c3cccc-2c31 (single isomer, unassigned; enantiomer 1) [Example 326, 1-methyl-7-[3-(naphthalen-1-yloxy)propyl]-3-[(2-oxopiperidin-1-yl)methyl]-1,10,11,12,13,15-hexahydropyrazolo[4′,3′:9,10][1,6]oxazacycloundecino[8,7,6-hi]indole-carboxylic Acid (Enantiomer 1)] | 0.515 | – | – | – | – | > 3.3e-05 | – | – | – | – | – | > 33 | > 33 | – | – | 3.18e-05 | 1.14e-05 | > 3.3e-05 | > 3.3e-05
